# Test system: NCI-H929 complex spheroids, viability % test/control
# Test: Anticancer human tumor NCI-H929 cell line growth inhibition [RAS];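 note: compound exposure lasted seven days before viability was read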;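 for viability, T/C: 100% = DMSO vehicle control viability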
# Conditions: for IC50: curve of first compound; for viability, T/C: stronger effect = lower value
# Outline: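 Tumour cells grown as complex spheroids with HUVEC endothelial cells and mesenchymal stem cells, treated with RAS pathway inhibitor combinations. Each agent spans half-log steps from near clinical Cmax, or 10 microM where Cmax is unknown.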
# [1] = second compound 0.000949 µM, first compound 0.0316 µM
# [2] = second compound 0.000949 µM, first compound 0.1 µM
# [3] = second compound 0.000949 µM, first compound 0.316 µM
# [4] = second compound 0.000949 µM, first compound 1 µM
# [5] = second compound 0.003 µM, first compound 0.0316 µM
# [6] = second compound 0.003 µM, first compound 0.1 µM
# [7] = second compound 0.003 µM, first compound 0.316 µM
# [8] = second compound 0.003 µM, first compound 1 µM
# [9] = second compound 0.00949 µM, first compound 0.0316 µM
# [10] = second compound 0.00949 µM, first compound 0.1 µM
# [11] = second compound 0.00949 µM, first compound 0.316 µM
# [12] = second compound 0.00949 µM, first compound 1 µM
# [13] = second compound 0.03 µM, first compound 0.0316 µM
# [14] = second compound 0.03 µM, first compound 0.1 µM
# [15] = second compound 0.03 µM, first compound 0.316 µM
# [16] = second compound 0.03 µM, first compound 1 µM
# [17] = second compound 0.0949 µM, first compound 0.0316 µM
# [18] = second compound 0.0949 µM, first compound 0.1 µM
# [19] = second compound 0.0949 µM, first compound 0.316 µM
# [20] = second compound 0.0949 µM, first compound 1 µM
# [21] = second compound 0.3 µM, first compound 0.0316 µM
# [22] = second compound 0.3 µM, first compound 0.1 µM
# [23] = second compound 0.3 µM, first compound 0.316 µM
# [24] = second compound 0.3 µM, first compound 1 µM
smiles,measurement,setting,value
CCN1CCN(Cc2ccc(Nc3ncc(F)c(-c4cc(F)c5nc(C)n(C(C)C)c5c4)n3)nc2)CC1 + CCn1c(-c2cccnc2C(C)OC)c2c3cc(ccc31)N1CCOC(CC(NC(=O)C(C(C)C)N(C)C(=O)C3(F)CCN(C(=O)C#CC(C)(C)N(C)C)CC3)C(=O)N3CCCC(N3)C(=O)OCC(C)(C)C2)C1,IC50,second compound 0.000949 µM,776 nM
same,IC50,second compound 0.003 µM,746 nM
same,IC50,second compound 0.00949 µM,814 nM
same,IC50,second compound 0.03 µM,734 nM
same,IC50,second compound 0.0949 µM,662 nM
same,IC50,second compound 0.3 µM,619 nM
same,"viability, T/C","second compound 0.000949 µM, first compound 0.00316 µM",105%
same,"viability, T/C","second compound 0.000949 µM, first compound 0.01 µM",97.9%
same,"viability, T/C",[1],105%
same,"viability, T/C",[2],101%
same,"viability, T/C",[3],104%
same,"viability, T/C",[4],35.1%
same,"viability, T/C","second compound 0.003 µM, first compound 0.00316 µM",103%
same,"viability, T/C","second compound 0.003 µM, first compound 0.01 µM",101%
same,"viability, T/C",[5],103%
same,"viability, T/C",[6],105%
same,"viability, T/C",[7],106%
same,"viability, T/C",[8],31.7%
same,"viability, T/C","second compound 0.00949 µM, first compound 0.00316 µM",96.8%
same,"viability, T/C","second compound 0.00949 µM, first compound 0.01 µM",104%
same,"viability, T/C",[9],99.9%
same,"viability, T/C",[10],104%
same,"viability, T/C",[11],107%
same,"viability, T/C",[12],38.6%
same,"viability, T/C","second compound 0.03 µM, first compound 0.00316 µM",97.4%
same,"viability, T/C","second compound 0.03 µM, first compound 0.01 µM",101%
same,"viability, T/C",[13],106%
same,"viability, T/C",[14],101%
same,"viability, T/C",[15],108%
same,"viability, T/C",[16],30.8%
same,"viability, T/C","second compound 0.0949 µM, first compound 0.00316 µM",99.4%
same,"viability, T/C","second compound 0.0949 µM, first compound 0.01 µM",99.5%
same,"viability, T/C",[17],102%
same,"viability, T/C",[18],103%
same,"viability, T/C",[19],104%
same,"viability, T/C",[20],21.2%
same,"viability, T/C","second compound 0.3 µM, first compound 0.00316 µM",98.7%
same,"viability, T/C","second compound 0.3 µM, first compound 0.01 µM",104%
same,"viability, T/C",[21],105%
same,"viability, T/C",[22],106%
same,"viability, T/C",[23],109%
same,"viability, T/C",[24],11.2%
C[C@@H](NC(=O)c1ncnc(N)c1Cl)c1ncc(C(=O)Nc2cc(C(F)(F)F)c(Cl)cn2)s1 + CCn1c(-c2cccnc2C(C)OC)c2c3cc(ccc31)N1CCOC(CC(NC(=O)C(C(C)C)N(C)C(=O)C3(F)CCN(C(=O)C#CC(C)(C)N(C)C)CC3)C(=O)N3CCCC(N3)C(=O)OCC(C)(C)C2)C1,IC50,second compound 0.000949 µM,> 10000 nM
same,IC50,second compound 0.003 µM,> 10000 nM
same,IC50,second compound 0.00949 µM,> 10000 nM
same,IC50,second compound 0.03 µM,> 10000 nM
same,IC50,second compound 0.0949 µM,> 10000 nM
same,IC50,second compound 0.3 µM,> 10000 nM
same,"viability, T/C",[1],109%
same,"viability, T/C",[2],101%
same,"viability, T/C",[3],105%
same,"viability, T/C",[4],94.4%
same,"viability, T/C","second compound 0.000949 µM, first compound 3.16 µM",98.9%
same,"viability, T/C","second compound 0.000949 µM, first compound 10 µM",103%
same,"viability, T/C",[5],103%
same,"viability, T/C",[6],107%
same,"viability, T/C",[7],99.3%
same,"viability, T/C",[8],93.1%
same,"viability, T/C","second compound 0.003 µM, first compound 3.16 µM",100%
same,"viability, T/C","second compound 0.003 µM, first compound 10 µM",104%
same,"viability, T/C",[9],99.7%
same,"viability, T/C",[10],102%
same,"viability, T/C",[11],102%
same,"viability, T/C",[12],92.3%
same,"viability, T/C","second compound 0.00949 µM, first compound 3.16 µM",102%
same,"viability, T/C","second compound 0.00949 µM, first compound 10 µM",104%
same,"viability, T/C",[13],98.8%
same,"viability, T/C",[14],105%
same,"viability, T/C",[15],99.1%
same,"viability, T/C",[16],92.6%
same,"viability, T/C","second compound 0.03 µM, first compound 3.16 µM",101%
same,"viability, T/C","second compound 0.03 µM, first compound 10 µM",104%
same,"viability, T/C",[17],104%
same,"viability, T/C",[18],101%
same,"viability, T/C",[19],94.8%
same,"viability, T/C",[20],92.3%
same,"viability, T/C","second compound 0.0949 µM, first compound 3.16 µM",96.2%
same,"viability, T/C","second compound 0.0949 µM, first compound 10 µM",105%
same,"viability, T/C",[21],106%
same,"viability, T/C",[22],105%
same,"viability, T/C",[23],102%
same,"viability, T/C",[24],87.4%
same,"viability, T/C","second compound 0.3 µM, first compound 3.16 µM",92.5%
same,"viability, T/C","second compound 0.3 µM, first compound 10 µM",107%
